Data on four molecules can be found in patent US10093713B2, “GIP-GLP-1 dual agonist compounds and methods” (priority 2013, dated 2018).

Molecules are shown by their SMILES. Read-outs that look alike come from different tables or passages of the source. *1 amine or outer side, *2 acyl side, *3 side chain or, on linkers, in order; H or OH if unused. Where a SMILES comes first, the peptide text is derived from it. Side-chain parts run from the residue outwards. [ ]: non-standard residue; d: D form. The star is where a group is joined. C20 diacid = O=C(O)CCCCCCCCCCCCCCCCCCC(=O)*; C18 diacid = O=C(O)CCCCCCCCCCCCCCCCC(=O)*; γGlu = O=C(O)[C@H](CCC(=O)[*:2])N[*:1]; AEEA = NCCOCCOCC(=O)O; Aib = CC(C)(N)C(=O)O

Data set [1] can be described thus: Pharmacokinetics of selected compounds in mice. It counts as in vivo, C57BL/6J mice. The settings on record: mouse, plasma; for bioavailability: subcutaneous, AUCinf (s.c.)/AUCinf (i.v.)x100, values marked * capped to 100%. On the procedure:
Pharmacokinetics of Selected Compounds in Mice
C57BL/6J mice (males with a body weight of approximately 25 g) were given either a single subcutaneous (s.c.) bolus or a single intravenous (i.v.) bolus of each peptide to be tested.
Following s.c. administration of the selected compounds (50, 100 or 200 nmol/kg), blood samples were drawn at 8 (eight) timepoints up to 72 hours post-dose. Following i.v. administration of the selected compounds (50, 100 or 200 nmol/kg), blood samples were drawn at 8 (eight) timepoints up to 48 hours post-dose. Blood samples were drawn by sublingual bleeding. The dosing vehicle was a phosphate buffer containing mannitol (pH 7.5).
At each sampling time point, samples from two mice were drawn, i.e. 16 mice were included for each compound and each administration route. The mice were euthanized immediately after blood sampling by cervical dislocation. Plasma samples were analyzed after solid phase extraction (SPE) or protein precipitation followed by liquid chromatography mass spectrometry (LC-MS/MS). Mean plasma concentrations were used for calculation of the pharmacokinetic parameters using the non-compartmental approach in Phoenix WinNonlin 6.3. Plasma terminal elimination half-life (T½) was determined as […] where λz is the magnitude of the slope of the log linear regression of the log concentration versus time profile during the terminal phase. Bioavailability was determined as AUCinf (s.c.)/AUCinf (i.v.)×100, where AUCinf is the area under the plasma concentration−time curve extrapolated to infinity (AUCinf=AUClast+Clast/λz, where Clast is the last observed plasma concentration). Tmax is the post-dose time where the maximal plasma concentration was observed.

A further data set addresses T1, human GIP R (Homo sapiens, UniProt P48546).
T1 construct: expressed in transfected cells
T1 sequence (P48546 22-466): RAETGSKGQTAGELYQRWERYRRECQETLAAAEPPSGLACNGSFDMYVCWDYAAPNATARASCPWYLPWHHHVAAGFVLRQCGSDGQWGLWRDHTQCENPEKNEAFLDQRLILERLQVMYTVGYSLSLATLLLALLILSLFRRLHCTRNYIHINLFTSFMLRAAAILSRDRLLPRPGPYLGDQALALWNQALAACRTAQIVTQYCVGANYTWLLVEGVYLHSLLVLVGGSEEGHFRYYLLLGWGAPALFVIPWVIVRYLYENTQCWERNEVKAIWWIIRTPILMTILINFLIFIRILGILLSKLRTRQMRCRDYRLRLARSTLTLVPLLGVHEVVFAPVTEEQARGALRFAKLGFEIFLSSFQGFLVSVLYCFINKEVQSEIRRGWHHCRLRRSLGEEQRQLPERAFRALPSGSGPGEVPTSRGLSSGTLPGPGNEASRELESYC
Kind of data set: Human GIP receptor (GIP R) activity assay, cAMP induction (AlphaScreen) in HEK293 cells. It counts as cell-based. The settings on record: read-out: hGIP-R cAMP EC50 average value. The method, boiled down:
(§1)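 Stable HEK293 clones expressing human GIP R or GLP-1 R, seeded 1 day before; cells washed in Tyrode's buffer (10 mM HEPES, pH 7.4), stimulated, then lysed. cAMP measured by AlphaScreen bead competition (1 h, room temperature, dark). EC50 = concentration giving half-maximal cAMP elevation, from curves of absolute cAMP (nM) vs log concentration.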

A further data set addresses T2, human GLP-1 R (Homo sapiens, UniProt P43220).
T2 construct: expressed in transfected cells
Put plainly: Human GLP-1 receptor (GLP-1 R) activity assay, cAMP induction (AlphaScreen) in HEK293 cells. It counts as cell-based. The method, boiled down:
as §1
A general note: In Alpha technology, singlet oxygen from a donor bead excites a nearby acceptor bead.

Setting [2] is: Table 2, HEK293 cells expressing human GIP R.
[3] abbreviates: Table 2a, secondary assay study.
The mark [4] stands for this setting: Table 3, most comprehensive data.
Where [5] appears, read: Table 2, HEK293 cells expressing human GLP-1 R, read-out: hGLP1-R cAMP EC50 average value.
Where [6] appears, read: male, C57BL/6J, iv, single i.v. bolus, read-out: T½ terminal elimination half-life, i.v. (converted).
[7] abbreviates: male, C57BL/6J, sc, single s.c. bolus.

T2 sequence (P43220 24-463): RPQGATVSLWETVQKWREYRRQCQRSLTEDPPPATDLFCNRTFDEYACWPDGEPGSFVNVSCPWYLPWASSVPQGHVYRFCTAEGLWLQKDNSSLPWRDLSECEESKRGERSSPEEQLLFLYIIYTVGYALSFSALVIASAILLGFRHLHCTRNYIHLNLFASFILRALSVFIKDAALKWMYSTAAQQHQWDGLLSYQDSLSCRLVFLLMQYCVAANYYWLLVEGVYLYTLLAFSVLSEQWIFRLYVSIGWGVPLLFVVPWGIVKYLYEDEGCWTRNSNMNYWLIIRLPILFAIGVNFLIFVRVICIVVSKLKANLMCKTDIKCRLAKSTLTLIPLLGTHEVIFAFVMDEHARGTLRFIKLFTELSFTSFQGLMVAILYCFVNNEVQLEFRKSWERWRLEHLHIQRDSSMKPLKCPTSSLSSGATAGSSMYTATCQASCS

By half-life is commonly meant the time in which the quantity being followed falls by half. A word on the bioavailability: it is dose-corrected exposure relative to a reference, in per cent. A word on the Tmax: it is the time from dosing to the highest level. What is called EC50 is the concentration needed to bring the measured effect to its halfway point. Take `CC[C@H](C)[C@H](NC(=O)[C@H](CO)NC(=O)[C@H](Cc1ccc(O)cc1)NC(=O)[C@H](CC(=O)O)NC(=O)[C@H](CO)NC(=O)[C@@H](NC(=O)[C@H](Cc1ccccc1)NC(=O)[C@@H](NC(=O)CNC(=O)[C@H](CCC(=O)O)NC(=O)C(C)(C)NC(=O)[C@@H](N)Cc1ccc(O)cc1)[C@@H](C)O)[C@@H](C)O)C(=O)N[C@@H](Cc1ccc(O)cc1)C(=O)N[C@@H](CC(C)C)C(=O)N[C@@H](CC(=O)O)C(=O)N[C@@H](CCCCN)C(=O)N[C@@H](CCCCNC(=O)CNC(=O)CNC(=O)[C@H](CO)NC(=O)CNC(=O)[C@H](CO)NC(=O)CNC(=O)CC[C@H](NC(=O)CCCCCCCCCCCCCCCCC(=O)O)C(=O)O)C(=O)N[C@@H](C)C(=O)N[C@@H](CCC(N)=O)C(=O)N[C@@H](CCCNC(=N)N)C(=O)N[C@@H](C)C(=O)N[C@@H](Cc1ccccc1)C(=O)N[C@H](C(=O)N[C@@H](CCC(=O)O)C(=O)N[C@@H](Cc1c[nH]c2ccccc12)C(=O)N[C@@H](CC(C)C)C(=O)N[C@@H](CC(C)C)C(=O)N[C@@H](C)C(=O)N[C@@H](CCC(N)=O)C(=O)NCC(=O)N1CCC[C@H]1C(=O)N[C@@H](CO)C(=O)N[C@@H](CO)C(=O)NCC(=O)N[C@@H](C)C(=O)N1CCC[C@H]1C(=O)N1CCC[C@H]1C(=O)N1CCC[C@H]1C(=O)N[C@@H](CO)C(N)=O)C(C)C` [Compound 4]: the half-life in data set [1] (iv, single i.v. bolus, read-out: T½ terminal elimination half-life, i.v. (converted)) is 8.7 h; in data set [1] (sc, single s.c. bolus, read-out: T½ terminal elimination half-life, s.c. (converted)), 10.8 h. The molecule further showed a bioavailability in data set [1] of 100%. In data set [1] (sc, single s.c. bolus), the Tmax amounted to 6 h. The EC50 came out at 8.7 pM at human GIP R (setting [2]), 9 pM on human GIP R (setting [3]), 9 pM on human GIP R (setting [4]) and 10 pM on human GLP-1 R (setting [5]).

For `CC[C@H](C)[C@H](NC(=O)[C@H](CO)NC(=O)[C@H](Cc1ccc(O)cc1)NC(=O)[C@H](CC(=O)O)NC(=O)[C@H](CO)NC(=O)[C@@H](NC(=O)[C@H](Cc1ccccc1)NC(=O)[C@@H](NC(=O)CNC(=O)[C@H](CCC(=O)O)NC(=O)C(C)(C)NC(=O)[C@@H](N)Cc1ccc(O)cc1)[C@@H](C)O)[C@@H](C)O)C(=O)N[C@@H](Cc1ccc(O)cc1)C(=O)N[C@@H](CC(C)C)C(=O)N[C@@H](CC(=O)O)C(=O)N[C@@H](CCCCN)C(=O)N[C@@H](CCCCNC(=O)COCCOCCNC(=O)COCCOCCNC(=O)COCCOCCNC(=O)CC[C@H](NC(=O)CCCCCCCCCCCCCCCCCCC(=O)O)C(=O)O)C(=O)N[C@@H](C)C(=O)N[C@@H](CCC(N)=O)C(=O)N[C@@H](CCCNC(=N)N)C(=O)N[C@@H](C)C(=O)N[C@@H](Cc1ccccc1)C(=O)N[C@H](C(=O)N[C@@H](CCC(=O)O)C(=O)N[C@@H](Cc1c[nH]c2ccccc12)C(=O)N[C@@H](CC(C)C)C(=O)N[C@@H](CC(C)C)C(=O)N[C@@H](C)C(=O)N[C@@H](CCC(N)=O)C(=O)NCC(=O)N1CCC[C@H]1C(=O)N[C@@H](CO)C(=O)N[C@@H](CO)C(=O)NCC(=O)N[C@@H](C)C(=O)N1CCC[C@H]1C(=O)N1CCC[C@H]1C(=O)N1CCC[C@H]1C(=O)N[C@@H](CO)C(N)=O)C(C)C` [Compound 8] (H-Y[Aib]EGTFTSDYSIYLDKK([AEEA-AEEA-AEEA-γGlu-C20 diacid])AQRAFVEWLLAQGPSSGAPPPS-NH2), in data set [1] (setting [6]), the half-life was 17.2 h. Also, the bioavailability in data set [1] (male, C57BL/6J) came out at 54%. In data set [1] (setting [7]), the Tmax came out at 8 h. The EC50 on human GIP R (setting [2]) is 5.3 pM; on human GIP R (setting [3]), 5 pM; on human GIP R (setting [4]), 5 pM; at human GLP-1 R (setting [5]), 12 pM; at human GLP-1 R (Table 2a, secondary assay study, read-out: hGLP1-R cAMP EC50 average value) it was 12 pM.

Take `CC[C@H](C)[C@H](NC(=O)[C@H](CO)NC(=O)[C@H](Cc1ccc(O)cc1)NC(=O)[C@H](CC(=O)O)NC(=O)[C@H](CO)NC(=O)[C@@H](NC(=O)[C@H](Cc1ccccc1)NC(=O)[C@@H](NC(=O)CNC(=O)[C@H](CCC(=O)O)NC(=O)C(C)(C)NC(=O)[C@@H](N)Cc1ccc(O)cc1)[C@@H](C)O)[C@@H](C)O)C(=O)N[C@@H](C)C(=O)N[C@@H](CC(C)C)C(=O)N[C@@H](CC(=O)O)C(=O)N[C@@H](CCCCN)C(=O)N[C@@H](CCCCNC(=O)COCCOCCNC(=O)COCCOCCNC(=O)CC[C@H](NC(=O)CCCCCCCCCCCCCCCCCCC(=O)O)C(=O)O)C(=O)N[C@@H](C)C(=O)N[C@@H](CCC(N)=O)C(=O)N[C@@H](CCCNC(=N)N)C(=O)N[C@@H](C)C(=O)N[C@@H](Cc1ccccc1)C(=O)N[C@H](C(=O)N[C@@H](CC(N)=O)C(=O)N[C@@H](Cc1c[nH]c2ccccc12)C(=O)N[C@@H](CC(C)C)C(=O)N[C@H](C(=O)N[C@@H](C)C(=O)NC(C)(C)C(=O)N[C@@H](CCCCN)C(=O)N1CCC[C@H]1C(=O)N[C@@H](CO)C(=O)N[C@@H](CO)C(=O)NCC(=O)N[C@@H](C)C(=O)N1CCC[C@H]1C(=O)N1CCC[C@H]1C(=O)N1CCC[C@H]1C(=O)N[C@@H](CO)C(N)=O)C(C)C)C(C)C` [Compound 15]: the half-life in data set [1] (setting [6]) was 17.3 h. Besides, in data set [1] (male, C57BL/6J), the bioavailability was 95%. Besides, in data set [1] (setting [7]), the Tmax was 8 h. Also, the EC50 on human GIP R (setting [2]) came to 8 pM; at human GIP R (setting [4]), 8 pM; on human GLP-1 R (setting [5]), 8.8 pM; at human GLP-1 R (Table 3, most comprehensive data, read-out: hGLP-1-R cAMP EC50 average value), 9 pM.

Consider `CC[C@H](C)[C@H](NC(=O)[C@H](CO)NC(=O)[C@H](Cc1ccc(O)cc1)NC(=O)[C@H](CC(=O)O)NC(=O)[C@H](CO)NC(=O)[C@@H](NC(=O)[C@H](Cc1ccccc1)NC(=O)[C@@H](NC(=O)CNC(=O)[C@H](CCC(=O)O)NC(=O)C(C)(C)NC(=O)[C@@H](N)Cc1ccc(O)cc1)[C@@H](C)O)[C@@H](C)O)C(=O)N[C@@H](C)C(=O)N[C@@H](CC(C)C)C(=O)N[C@@H](CCC(=O)O)C(=O)N[C@@H](CCCCN)C(=O)N[C@@H](CCCCNC(=O)COCCOCCNC(=O)COCCOCCNC(=O)CC[C@H](NC(=O)CCCCCCCCCCCCCCCCC(=O)O)C(=O)O)C(=O)N[C@@H](C)C(=O)N[C@@H](CCC(N)=O)C(=O)N[C@@H](CCCNC(=N)N)C(=O)N[C@@H](C)C(=O)N[C@@H](Cc1ccccc1)C(=O)N[C@H](C(=O)N[C@@H](CCC(=O)O)C(=O)N[C@@H](Cc1c[nH]c2ccccc12)C(=O)N[C@@H](CC(C)C)C(=O)N[C@@H](CC(C)C)C(=O)N[C@@H](C)C(=O)N[C@@H](CCC(N)=O)C(=O)N[C@@H](CCCCN)C(N)=O)C(C)C` [Compound 16] (H-Y[Aib]EGTFTSDYSIALEKK([AEEA-AEEA-γGlu-C18 diacid])AQRAFVEWLLAQK-NH2), for which the half-life in data set [1] (setting [6]) is 7.4 h. Further, in data set [1] (male, C57BL/6J), the bioavailability stood at 50%. The time to peak (Tmax) in data set [1] (setting [7]) came out at 6 h. In addition, the EC50 on human GIP R (setting [2]) was 8.1 pM; at human GIP R (setting [4]), 8 pM; at human GLP-1 R (setting [5]), 15 pM.
